These results are taken from patent US20230102503A1, “BIOMARKERS FOR OXYTOCIN RECEPTOR ANTAGONIST THERAPY” (ObsEva S.A., priority 2020, published 2023).

One series concerns the target CYP3A4 (Homo sapiens, UniProt P08684). The series can be described thus: metabolism by CYP3A4 isoform. In kind it is in vitro ADME. On the procedure: (§1) At five time points over the course of a 45 minute experiment, the compounds were analyzed by LC-MS/MS. The percentage of each compound remaining at each time point, along with the metabolic half-lives of each compound in the presence of each cytochrome P450 isoform, are indicated in Tables 10-12, below.

A short description of series [1]: plasma concentration of compound (II) in clinical trial of Example 4. In kind it is in vivo, human. The conditions noted are these: oral administration of either the 900 mg or the 1,800 mg dose. On the procedure:
(§2) Particularly, subjects were pre-treated with estradiol valerate at a dosage of 2 mg administered 3 times per day (TID) for 16 days. Administration of estradiol valerate was followed by vaginal progesterone at a dosage of 200 mg administered TID.

Series [2] relates to healthy female volunteers. The series can be described thus: uterine contractions and endometrial blood flow in clinical trial of Example 4. In kind it is in vivo, human. The conditions noted are these: single oral dose of 900 mg or 1,800 mg. The method, then: as §2
These assessments included measurements of uterine contractions by ultrasound and uterine perfusion by a 3D-power Doppler technique.
Mean and median changes in uterine contraction frequency and endometrial vascularity indices (particularly, endometrial flow index (FI), vascularity index (VI), and vascularity flow index (VFI)) were calculated. […] Differences in endometrial mRNA expression were identified and assessed for statistical significance.

Series [3] deals with endometrial RNA transcript expression (DPP4, CNTNAP3, CNTN4, CXCL12, TNXB, CTSE, OLFM4, KRT5, KRT6A, IDO2). The series can be described thus: RNA-Seq assay of endometrial tissue mRNA expression before and after administration. In kind it is in vivo, human. The method, then:
Using an RNA-Seq assay, each subject's mRNA expression level of a variety of genes, including DPP4, CNTNAP3, CNTN4, CXCL12, TNXB, CTSE, OLFM4, KRT5, KRT6A, and IDO2, was then assessed to determine whether the expression of each gene increased, decreased, or underwent no significant change due to administration of the compound or placebo.

Another series relates to uterine contractions. The series can be described thus: Uterine contractions after single dose versus placebo. In kind it is in vivo, human.
The subject of the next series is endometrial perfusion. Briefly: Endometrial perfusion parameters (VI, FI, VFI) after single dose. The conditions noted are these: for increase in median endometrial VFI: between pre-dose and 24-hour post-dose. In kind it is in vivo, human.
Series [4] deals with spontaneous uterine contractions. The settings on record: same vehicle, same model organism; cited from earlier work.
The conditions of series [5]: crystal form with XRPD peaks of Table 1; cited from earlier work.
For series [6] the following is noted: dispersible tablet formulations; cited from earlier work.
The target in a further series is CYP2D6 (Homo sapiens, UniProt P10635). The series can be described thus: metabolism by CYP2D6 isoform. In kind it is in vitro ADME. On the procedure:
as §1

A further series concerns the target CYP2C19 (Homo sapiens, UniProt P33261). The series can be described thus: metabolism by CYP2C19 isoform. In kind it is in vitro ADME. The method, then:
as §1

Where [7] appears, read: 1,800 mg dose, within 24 hours of administration.

Chain of CYP2D6 (P10635 whole entry, canonical isoform): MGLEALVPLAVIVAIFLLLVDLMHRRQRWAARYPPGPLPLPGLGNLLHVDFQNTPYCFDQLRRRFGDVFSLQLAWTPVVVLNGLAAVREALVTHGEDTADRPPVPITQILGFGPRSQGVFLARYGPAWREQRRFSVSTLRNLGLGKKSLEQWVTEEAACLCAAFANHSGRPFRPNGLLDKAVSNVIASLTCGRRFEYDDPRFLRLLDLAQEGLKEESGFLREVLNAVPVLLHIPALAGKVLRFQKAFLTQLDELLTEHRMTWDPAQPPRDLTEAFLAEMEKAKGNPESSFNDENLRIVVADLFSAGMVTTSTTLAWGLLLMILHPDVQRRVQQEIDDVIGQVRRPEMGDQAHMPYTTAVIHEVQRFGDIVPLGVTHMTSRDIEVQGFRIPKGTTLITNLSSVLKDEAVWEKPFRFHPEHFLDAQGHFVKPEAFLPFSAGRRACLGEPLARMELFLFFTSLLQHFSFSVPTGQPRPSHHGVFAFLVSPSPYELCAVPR
Chain of CYP3A4 (P08684 whole entry, canonical isoform): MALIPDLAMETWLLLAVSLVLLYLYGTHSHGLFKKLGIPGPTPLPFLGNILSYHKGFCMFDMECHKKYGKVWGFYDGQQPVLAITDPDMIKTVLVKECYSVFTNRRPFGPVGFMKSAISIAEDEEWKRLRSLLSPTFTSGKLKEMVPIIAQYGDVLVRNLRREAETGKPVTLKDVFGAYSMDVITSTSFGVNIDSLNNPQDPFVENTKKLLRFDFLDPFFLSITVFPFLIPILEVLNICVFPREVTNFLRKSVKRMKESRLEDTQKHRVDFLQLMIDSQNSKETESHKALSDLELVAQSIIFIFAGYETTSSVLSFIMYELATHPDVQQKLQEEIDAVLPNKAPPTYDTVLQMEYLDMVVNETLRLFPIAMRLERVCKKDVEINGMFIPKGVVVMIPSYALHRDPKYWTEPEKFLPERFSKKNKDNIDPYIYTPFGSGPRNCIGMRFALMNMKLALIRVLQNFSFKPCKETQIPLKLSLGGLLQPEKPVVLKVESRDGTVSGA
Chain of CYP2C19 (P33261 whole entry, canonical isoform): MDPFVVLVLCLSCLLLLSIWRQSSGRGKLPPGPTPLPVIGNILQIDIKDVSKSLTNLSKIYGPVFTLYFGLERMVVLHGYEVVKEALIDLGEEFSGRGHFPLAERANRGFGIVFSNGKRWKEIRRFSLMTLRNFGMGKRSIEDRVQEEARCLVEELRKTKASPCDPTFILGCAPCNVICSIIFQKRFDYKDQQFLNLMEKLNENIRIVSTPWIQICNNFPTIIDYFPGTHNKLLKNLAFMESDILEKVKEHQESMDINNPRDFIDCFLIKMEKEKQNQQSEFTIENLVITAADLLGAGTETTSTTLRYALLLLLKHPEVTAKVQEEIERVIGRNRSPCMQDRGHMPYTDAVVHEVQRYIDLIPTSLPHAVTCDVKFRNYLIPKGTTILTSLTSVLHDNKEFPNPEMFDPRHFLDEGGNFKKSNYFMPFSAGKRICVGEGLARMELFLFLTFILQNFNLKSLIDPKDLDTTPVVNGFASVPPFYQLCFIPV

As to `CO/N=C1/C[C@@H](CO)N(C(=O)c2ccc(-c3ccccc3C)cc2)C1` [Compound (II), (3Z,5S)-5-(hydroxymethyl)-1-[(2′-methyl-1,1′-biphenyl-4-yl)carbonyl]pyrrolidin-3-one O-methyloxime], the “preferential metabolism by cytochrome P450 isoform” value at CYP3A4 is listed as “preferentially metabolized by the CYP3A4 isoform of cytochrome P450”. For the same compound, the “time to maximum concentration” value in [1] was “about 4 hours”. In addition, in series [2] (FIG. 7), the “effect on uterine contractions” value is “decrease uterine contractions”. Further, the “effect on endometrial blood flow (FI, VI, VFI)” value in series [2] (FIGS. 8-10) is “marked and sustained increase in endometrial blood flow”. The “differences in mRNA expression in endometrial biopsy tissue compared to placebo” value in series [3] (900 mg dose) is “No differences”. In series [3] (setting [7]), the “number of mRNAs downregulated” value is reported as 5. The “number of mRNAs upregulated” value in series [3] (setting [7]) was 5. Besides, in [3] (1,800 mg dose, within 24 hours of administration, adjusted p<0.05), the “number of mRNAs significantly differentially expressed” value was 10. Besides, the “proportion of subjects showing less than one uterine contraction per minute versus placebo” value in the series on uterine contractions (900 mg dose, 24-hour time point only (p=0.0437)) was “significant difference”; with uterine contractions (1,800 mg dose, 8-hour time point (p=0.0121)) it was “significance was seen”. Besides, the “number of uterine contractions per minute versus placebo” value in the series with uterine contractions (900 mg dose, all time points (p>0.10)) is on record as “no significant difference”; in the series on uterine contractions (1,800 mg dose, from the 4-hour time point onwards (p=0.0923 at 4 h, p=0.0081 at 8 h)), “contraction-reducing effects were observed”. Also, the “Endometrial Fl” value in the series on endometrial perfusion (900 mg dose, 24-hour time point (p=0.0502)) is “significant increases”; with endometrial perfusion (1,800 mg dose, 24-hour time point (p=0.0625)), “significant increases”. Besides, the “increase in median endometrial VFI” value in the series with endometrial perfusion (900 mg dose) and in the series on endometrial perfusion (1,800 mg dose) was “approximately 3 fold” each time. Further, in the series with endometrial perfusion (1,800 mg dose, 8-hour time point (p=0.0714)), the “endometrial VI versus placebo” value was “substantial increase”. Moreover, in [4], the “inhibitory activity with respect to uterine contraction, compared with (3E) diastereomer” value was “markedly higher than that of the substantially pure (3E) diastereomer”. Further, the “stability of crystal form” value in [5] was “enhanced stability to aqueous media and physical stress”. Besides, in series [6], the “absorption kinetics upon administration to a subject” value is “rapid absorption kinetics”.

Take `CO/N=C1\C[C@@H](CO)N(C(=O)c2ccc(-c3ccccc3C)cc2)C1` [(3E) isomer, (3E,5S)-5-(hydroxymethyl)-1-[(2′-methyl-1,1′-biphenyl-4-yl)carbonyl]pyrrolidin-3-one O-methyloxime]: the “preferential metabolism by cytochrome P450 isoform” value was “preferentially metabolized by the CYP2D6 and CYP2C19 isoforms of cytochrome P450” on CYP2D6; “preferentially metabolized by the CYP2D6 and CYP2C19 isoforms of cytochrome P450” on CYP2C19.
